Assay results: patent US20100008980A1, “Use of MAGE A3-Protein D Fusion Antigen in Immunotherapy Combined with Surgery, Chemotherapy or Radiotherapy for the Treatment of Cancer” (priority 2007, published 2010)
Where two headings read alike, the source gives them in different places.

Key:
CD4+CD25+ Treg = assay type: in vivo, CB6F1 female mice; conditions: for % CD4+ CD25+/ total cell / % Treg/ total cell / CD4+ CD25+ (events): blood, CY 2 mg IP at day 0
Experimental: (§1) Groups of CB6F1 female mice (n=10/group) received at day 0 sub-cutaneous (SC) 10e5 TC1-Mage3 cells followed by injection of: • Group 1: PBS at day 3-7-11-15 • Group 2: MAGE-A3 (1 μg)/As 15 ASCI at day 3-7-11-15 • Group 3: Cyclophosphamide (CY) (2 mg IP) at day 0+PBS at day 3-7-11-15 • Group 4: CY+MAGE-A3 (1 μg)/AS15 ASCI
(§2) • verification of the depletion by FACS at day 3 and 15 on whole blood • in vivo tumor growth from day 0 to day 28 • ICS at day 28 on spleen cells • serology at day 28 (not completed)
(§3) In order to analyze the impact of 2 mg of CY injected intraperitoneally in mice, 3 and 15 days after the injection blood was taken and lymphocytes count was performed by FACS

lymphocytes = assay type: in vivo, CB6F1 female mice; conditions: for Total Cell count (multisizer): blood, CY 2 mg IP at day 0
Experimental: as §1, §2, §3

MAGE-A3 = system: MAGE-A3
Experimental: as §1, §2
14 days after the last ASCI injection, the T cell response was analyzed by intracellular cytokine staining of CD4 and CD8 using flow cytometry (3 pools per group) after a short in vitro restimulation (2 Hrs) with the pool of MAGE-A3 overlapping peptide spanning the entire MAGE-A3 sequence.

TC1-Mage3 cells = assay type: in vivo, CB6F1 female mice; conditions: 10e5 TC1 MAGE3 cells SC day 0; cyclophosphamide 2 mg at day 0; groups of 10 mice
Experimental: as §1, §2

**Q.** Which results are given for `O=P1(N(CCCl)CCCl)NCCCO1` (stereo not shown) [Cyclophosphamide (Cy), Cyclophosphamide]?
**A.** number of T reg (in words) (CD4+CD25+ Treg; 3 days after 2 mg cyclophosphamide): only slightly decreased the number of T reg but did not deplete them; % CD4+ CD25+/ total cell (CD4+CD25+ Treg; 3 days): 0.1%; % Treg/ total cell (CD4+CD25+ Treg; 3 days): 0.07%; CD4+ CD25+ (events) (CD4+CD25+ Treg; 3 days): 274 events; % CD4+ CD25+/ total cell (CD4+CD25+ Treg; 15 days): 0.16%; % Treg/ total cell (CD4+CD25+ Treg; 15 days): 0.13%; CD4+ CD25+ (events) (CD4+CD25+ Treg; 15 days): 539 events; total number of T cells (in words) (lymphocytes; 3 days after 2 mg CY): has an impact on the total number of T cells; total number of T cells (in words) (lymphocytes; 15 days after the injection of CY): almost restored; Total Cell count (multisizer) (lymphocytes; 3 days after injection): 1 ×10e6 cells/ml; Total Cell count (multisizer) (lymphocytes; 15 days after injection): 5.53 ×10e6 cells/ml; MAGE-A3 specific CD4 response (MAGE-A3; cyclophosphamide by itself, spleen cells day 28, FIG. 1): did not induce any MAGE-A3 specific CD4 response; MAGE-A3 specific CD8 response (MAGE-A3; cyclophosphamide by itself, spleen cells day 28, FIG. 2): did not induce any MAGE_A3 specific CD8 response; effect on the CD4 response induced by the ASCI (MAGE-A3; cyclophosphamide given 3 days before the ASCI, FIG. 1): did not abolish the CD4 response induced by the ASCI there is even a trend in favor of a better response; effect on the CD8 response induced by the ASCI (MAGE-A3; cyclophosphamide given 3 days before the ASCI, FIG. 2): did not abolish the CD8 response induced by the ASCI there is even a trend in favor of a better response; tumor rejection, % of the animals (TC1-Mage3 cells): 100%
